Drawing on ChEMBL document CHEMBL1201862, “PubChem BioAssay data set” (2004), this text covers EC50 and AC50 for 43 compounds.

Calls of active or inactive are those of the source.

Data set [1] is described as follows: alpha-synuclein stem-loop luciferase translation blockers – H4 neuroglioma cells, luminescence, confirmation (AID 1988). The class given is functional, cell-based.
Data set [2] is described as follows: Luminescence Cell-Based Dose Response HTS to Identify Inhibitors of 5'UTR Stem-Loop Driven Prion Protein mRNA Translation in H4 Neuroglioblastoma Cells. [Related pubchem assays: 1827 (Project Summary), 1813 (Primary HTS)]. The class given is functional.
A short description of data set [3]: luciferase reporter signal suppression in cells – H4 neuroglioma cells, luminescence, dose response (AID 1990). The class given is functional, cell-based. (Reporter assays use an easily measured gene product as a stand-in for the process of interest.)
The target of a further data set is Cytochrome P450 2C19 (Homo sapiens, UniProt P33261). The experiment in a line: Cytochrome panel assay with activity outcomes. Panel member name: p450-cyp2c19 Compounds with AC50 equal or less than 10 uM are considered active. The class given is functional.
Cytochrome P450 2C19, sequence (P33261 whole entry): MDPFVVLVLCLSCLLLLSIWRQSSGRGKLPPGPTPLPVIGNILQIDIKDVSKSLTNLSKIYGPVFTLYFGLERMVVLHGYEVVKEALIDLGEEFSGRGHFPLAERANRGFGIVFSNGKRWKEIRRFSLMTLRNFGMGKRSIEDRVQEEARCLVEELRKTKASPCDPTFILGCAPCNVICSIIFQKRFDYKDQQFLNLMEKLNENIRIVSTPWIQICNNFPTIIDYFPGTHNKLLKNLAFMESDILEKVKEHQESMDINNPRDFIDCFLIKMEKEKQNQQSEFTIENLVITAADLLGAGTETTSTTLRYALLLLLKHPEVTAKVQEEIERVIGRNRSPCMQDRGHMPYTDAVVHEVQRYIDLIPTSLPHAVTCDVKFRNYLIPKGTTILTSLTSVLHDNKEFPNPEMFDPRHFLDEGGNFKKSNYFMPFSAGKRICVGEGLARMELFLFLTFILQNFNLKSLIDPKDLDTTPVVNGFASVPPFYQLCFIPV
Data set [4] is described as follows: NIH3T3 cell viability loss – ATP luminescence, mouse fibroblasts, counter-screen, dose response (AID 2010).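 Note: cells exposed to compound for about 90 hours before reading.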 The class given is functional, cell-based.
Data set [5] is described as follows: Trypanosoma cruzi growth suppression in host cells – NIH3T3 host cells, beta-gal luminescence, confirmation (AID 2044).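 Note: intracellular parasites grown in NIH/3T3 mouse fibroblasts as host cells; luminescent beta-galactosidase reporter signal from transgenic T. cruzi replicating inside host cells; inhibitors lower the luminescence signal.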 The class given is functional, cell-based.
Data set [6] has as its target T1, Corticotropin-releasing factor receptor 2/Corticotropin-releasing factor-binding protein (Homo sapiens, UniProt P24387+Q13324).
T1 sequence (Q13324 whole entry): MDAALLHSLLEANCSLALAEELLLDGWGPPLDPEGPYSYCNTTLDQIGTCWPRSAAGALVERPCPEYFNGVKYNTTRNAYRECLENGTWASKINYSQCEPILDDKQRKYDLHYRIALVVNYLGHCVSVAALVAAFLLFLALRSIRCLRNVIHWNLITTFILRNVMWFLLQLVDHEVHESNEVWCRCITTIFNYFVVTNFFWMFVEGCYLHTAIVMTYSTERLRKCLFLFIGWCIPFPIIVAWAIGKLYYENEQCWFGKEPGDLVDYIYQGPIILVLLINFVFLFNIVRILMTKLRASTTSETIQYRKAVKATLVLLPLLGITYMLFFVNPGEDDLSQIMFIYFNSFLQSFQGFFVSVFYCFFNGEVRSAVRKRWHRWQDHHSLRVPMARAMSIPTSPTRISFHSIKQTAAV
T1 sequence (P24387 whole entry): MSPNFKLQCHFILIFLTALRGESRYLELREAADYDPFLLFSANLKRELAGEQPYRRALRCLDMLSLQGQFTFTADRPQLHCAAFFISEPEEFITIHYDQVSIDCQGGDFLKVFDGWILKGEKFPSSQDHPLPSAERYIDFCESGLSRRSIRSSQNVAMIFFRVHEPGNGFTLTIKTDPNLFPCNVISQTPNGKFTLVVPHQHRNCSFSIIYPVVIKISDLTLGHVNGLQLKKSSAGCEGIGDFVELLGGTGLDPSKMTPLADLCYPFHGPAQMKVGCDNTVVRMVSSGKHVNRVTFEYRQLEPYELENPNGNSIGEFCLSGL
Kind of data set: activators of CRF receptor 2 with binding protein – uHTS hits, confirmation (AID 602473). The class given is functional. The conditions noted are these: read-out: EC50_Mean.

Take `Cc1ccc2c(c1)N1C(=O)c3ccccc3C1C1=C(O)CC(C)(C)CC1=N2` (stereo not given): the figures for the EC50 in data set [1], in data set [2] and in data set [3] were > 120 µM (not active), 18.1 µM (active) and > 120 µM (not active), respectively.

Regarding `O=S(=O)(c1ccccc1)N1CCC2(CC1)OCCO2`, the EC50 is > 120 µM (not active) in data set [1], 6.97 µM (active) in data set [2] and > 120 µM (not active) in data set [3].

`Nc1nc(NCCCN2CCOCC2)nc(Nc2ccccc2)c1[N+](=O)[O-]`: the EC50 in data set [1] is > 120 µM (not active); in data set [2], 19 µM (active); in data set [3] it was 40.7 µM (active).

Regarding `CC(C)NC(=O)c1ccccc1NC(=O)/C=C/c1cccc([N+](=O)[O-])c1`, the EC50 in data set [1] is 9.29 µM (active); in data set [2], 11.3 µM (active); in data set [3] it was 8.64 µM (active).

For orientation: AC50 means the concentration at which the activity in the assay is half-maximal. `CC(C)NC(=O)N1CCC2(CC1)CCN(S(C)(=O)=O)CC2`: the concentration at half-maximal activity (AC50) at Cytochrome P450 2C19 (read-out: AC50) was 39.8 µM (inconclusive).

For `Cc1c(C(=O)NCC2COc3ccccc3O2)oc2ccc(S(=O)(=O)N3CC(C)CC(C)C3)cc12` (stereo not given), the figures for the EC50 in data set [4] and in data set [5] were > 60 µM (not active) and 1.79 µM (active), respectively.

As to `Cc1cccc(NC(=O)CSc2nnc(C)c(=O)n2N)c1C`, the EC50 in data set [1], in data set [2] and in data set [3] was > 120 µM (not active) in each case.

Regarding `Cc1ccc(Sc2nc(-c3ccccc3)ccc2C#N)cc1`, at Cytochrome P450 2C19 (read-out: AC50), the AC50 is 0.631 µM (inconclusive).

Turning to `NC(=NOC(=O)c1cc([N+](=O)[O-])ccc1Cl)c1cccnc1`, the EC50 in data set [1], in data set [2] and in data set [3] was > 120 µM (not active) each time.

Regarding `CC(=O)NCCC(=O)Nc1cc(S(=O)(=O)N2CCCCC2)ccc1N1CCN(C)CC1`, the EC50 in data set [4] was > 30 µM (not active); in data set [5], 0.231 µM (active).

With `CN1CCN(CC2(O)CCN(S(=O)(=O)c3ccc(Cl)cc3)CC2)CC1`, the EC50 in data set [4] was > 60 µM (not active); in data set [5], 1.11 µM (active).

In the case of `CC1(C)Cc2c(ccc3ccccc23)C(c2cc3ccccc3oc2=O)=N1`, the figures for the EC50 in data set [1], in data set [2] and in data set [3] were > 120 µM (not active), 21.5 µM (active) and 11.1 µM (active), respectively.

Consider `Cn1c(=N)n(CC(=O)c2ccc(Cl)c(Cl)c2)c2ccccc21`, for which the EC50 in data set [1] was 9.54 µM (active); in data set [2] it was 13.5 µM (active); in data set [3], 6.07 µM (inconclusive).

Turning to `Cc1nn(Cc2ccccc2Cl)c(C)c1C(=O)NC1CCCc2ccccc21` (stereo not given), the EC50 was 58 µM (active) in data set [1], 103 µM (active) in data set [2] and 17.1 µM (active) in data set [3].

On to `Cc1onc(-c2ccccc2Cl)c1C(=O)N(Cc1ccc(N(C)C)cc1)C(C)C`, for which the EC50 is > 120 µM (not active) in data set [1], > 120 µM (not active) in data set [2] and 22.5 µM (active) in data set [3].

As for `CCN(Cc1ccc(O)cc1)CC1CCCN(CCc2cccc(F)c2)C1` (stereo not given), the results for the EC50 in data set [4] and in data set [5] were 40.3 µM (active) and 0.69 µM (active), respectively.

On to `CCC(NCCC1=CCCCC1)=C1C(=O)NC(=O)NC1=O`, for which the EC50 in data set [1], in data set [2] and in data set [3] was > 120 µM (not active) throughout.

On to `Cc1ccc(C)c(NC(=O)c2ccccc2O)c1`, for which the EC50 in data set [6] is > 53 µM (inactive).

Turning to `O=C(CCCCCn1c(=S)[nH]c2ccc(N3CCOCC3)cc2c1=O)NC1CCN(Cc2ccccc2)CC1`, the EC50 is > 60 µM (not active) in data set [4] and 0.595 µM (active) in data set [5].

With `CCN(CC)CCN(C(=O)c1ccc(S(=O)(=O)N2CCCCC2)cc1)c1nc2cc3c(cc2s1)OCO3`, the figures for the EC50 in data set [4] and in data set [5] were > 60 µM (not active) and 0.213 µM (active), respectively.

As to `COc1cc(CNC(=O)c2nc(Cn3nc(C)c(Br)c3C)no2)cc(OC)c1`, the EC50 in data set [1] is 42.7 µM (active); in data set [2], > 120 µM (not active); in data set [3], > 120 µM (not active).

For the compound `COc1cc(NC(=O)CCN2CCN(C/C=C/c3ccccc3)CC2)cc(OC)c1`, the EC50 in data set [4] was > 60 µM (not active); in data set [5] it was 0.918 µM (active).

In the case of `CCC/C=C(\CCC)C(NC(=O)C(C)(C)C)c1ccc(C(=O)OC)cc1` (stereo not given), the AC50 on Cytochrome P450 2C19 (read-out: AC50) is 39.8 µM (inconclusive).

For `O=C(CCc1ccc(S(=O)(=O)NCc2ccccc2)cc1)N1CCN(Cc2ccc3c(c2)OCO3)CC1`, the EC50 in data set [4] was > 30 µM (not active); in data set [5], 0.897 µM (active).

With `O=C(OCc1ccccc1)c1cn(-c2ccccc2)nc1-c1ccncc1`, the EC50 in data set [4] was 33.5 µM (active); in data set [5], 1.14 µM (active).

Regarding `COc1cccc(-c2nc(CS(=O)(=O)CC(=O)NCCc3ccc(C)cc3)c(C)o2)c1`, the EC50 in data set [1], in data set [2] and in data set [3] was > 120 µM (not active) each time.

As for `NC(S)=Nc1cccc2[nH]ccc12`, in data set [4], the EC50 is listed as > 30 µM (not active).

As for `CCc1ccc(-c2nc(CSCC(=O)N3CCN(c4ccccn4)CC3)c(C)o2)cc1`, the EC50 in data set [1] was 12 µM (active); in data set [2], 15 µM (active); in data set [3], 8.61 µM (active).

In the case of `COC(=O)c1sc(NC(=S)NC(=O)c2cccc(C)c2)nc1C`, the EC50 in data set [6] is 9.05 µM (active).

As to `Cc1ccccc1N1C(=O)NC(=O)/C(=C\c2ccc3c(c2)CCCN3Cc2ccccc2)C1=O`, the EC50 in data set [6] was 14.2 µM (active).

Take `Cc1ccc(-n2nnc(-c3nccs3)n2)cc1`: the results for the EC50 in data set [1], in data set [2] and in data set [3] were 1.41 µM (active), 0.985 µM (active) and 4.02 µM (active), respectively.

As for `CC(C)c1ccc(C(O)P(=O)(OC2CCCCC2)OC2CCCCC2)cc1` (stereo not given), the EC50 in data set [1] was > 120 µM (not active); in data set [2], 19.2 µM (active); in data set [3], > 120 µM (not active).

As to `Cc1cc(C)c(S(=O)(=O)N2CCN(c3ccc([N+](=O)[O-])c(-n4nc(C)cc4C)c3)CC2)c(C)c1`, the EC50 in data set [4] is > 60 µM (not active); in data set [5], 1.83 µM (active).

For the compound `CCc1c(C#N)c(SCCC(=O)Nc2ccc(F)cc2)nc2c1C(=O)CC(C)(C)C2`, the results for the EC50 in data set [4] and in data set [5] were > 60 µM (not active) and 0.996 µM (active), respectively.

Consider `O=C(Nc1ccc(N2CCCCC2)cc1)c1cc([N+](=O)[O-])cc([N+](=O)[O-])c1`, for which the EC50 in data set [4] is > 60 µM (not active); in data set [5], 0.411 µM (active).

Take `COc1ccc(-n2c(S)nnc2CNC(=O)c2cc(OC)c(OC)c(OC)c2)cc1`: on Cytochrome P450 2C19, the half-maximal activity concentration (AC50) entry is recorded as “inconclusive”.

Take `COc1ccc(N(CC(=O)NN=C2CCCC2)S(=O)(=O)c2ccccc2)cc1Cl`: the EC50 in data set [6] is 4.37 µM (active).

For `CN1c2ccccc2Oc2c(c(=O)n(C)c(=O)n2C)C1c1cccc([N+](=O)[O-])c1` (stereo not given), the AC50 at Cytochrome P450 2C19 (read-out: AC50) was 14.1 µM (inconclusive).

Consider `CCOc1ccc(NS(=O)(=O)c2ccc(C(=O)NCC3(N4CCCCC4)CCCCC3)cc2)cc1`, for which the EC50 in data set [6] is 6.45 µM (active).

In the case of `O=C(O)c1ccccc1N/N=C\c1ccnc2ccccc12`, the EC50 in data set [1] was 7.78 µM (active); in data set [2] it was 11.1 µM (active).

Consider `C#CCn1/c(=N/C(=O)c2ccc(S(=O)(=O)N3CCCc4ccccc43)cc2)sc2cc(S(N)(=O)=O)ccc21`, for which the EC50 was > 60 µM (not active) in data set [4] and 0.819 µM (active) in data set [5].

With `Cc1ccc2sc(N3CCN(C(=O)c4ccc([N+](=O)[O-])o4)CC3)nc2c1C`, the results for the EC50 in data set [4] and in data set [5] were > 30 µM (not active) and 0.119 µM (active), respectively.

For `O=c1c(-c2ccc(O)cc2)coc2cc(O)cc(O)c12` [GENISTEIN], the AC50 at Cytochrome P450 2C19 (read-out: AC50) is 10 µM (inconclusive).
